Experimental data reported in US12612412B2, “Antiviral heterocyclic compounds” (Enanta Pharmaceuticals, Inc., priority 2021, dated 2026).
Where two headings read alike, the source gives them in different places.

How the values were obtained:
[1] = test system: genotype A, "Long" strain RSV; test: RSV-A assay (CPE protection in Hep-2 cells, ATPlite readout); assay type: cell-based, Human respiratory syncytial virus (HRSV); settings: genotype A “Long” strain RSV, MOI 0.1, CPE protection, read-out: Human RSV-A (“Long”)
Method in brief: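 Compound effect on RSV-induced CPE: Hep-2 monolayers, MOI 0.1, duplicate 2-fold titrations, 5-day culture in 10% FBS DMEM. Readout is ATP-based luminescence, normalised to virus-only and no-virus controls, giving EC50.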

[2] = test system: recombinant HMPV CAN97-83 containing eGFP (MPV-GFP1); test: HMPV antiviral assay Method-A (MPV-GFP1 eGFP fluorescence in Vero E6 cells); assay type: cell-based, Human metapneumovirus (HMPV); settings: read-out: HMPV EC50
Experimental: HMPV antiviral activity was evaluated using a recombinant version of HMPV CAN97-83 engineered to contain the coding sequence for enhanced green fluorescence protein (eGFP) in the 3′ end of the virus genome (MPV-GFP1, ViraTree). Vero E6 cells ([…]) were seeded at a density of 12,000 cells/100 μL/well into 96-well cell plates one day prior to the assay. On the day of screening, the cell culture medium was aspirated from the wells and cells were washed twice with serum-free Eagle's Modified Essential Medium (EMEM, ATCC #) containing 1% penicillin-streptomycin (Invitrogen) (SF-EMEM). Cell washes were performed by dispensing 100 μL SF-EMEM per well and immediately aspirating the wash medium from the well. Following the second wash step, serum-free OptiMEM (Invitrogen, Cat No.) (SF-OptiMEM) containing 0.5 μg/mL TPCK-Trypsin (VENDOR) and 1% penicillin-streptomycin was added to the cells at 50 μL/well. Compounds were added into the 96-well plates using a JANUS automated liquid handling system (VENDOR). Compounds were initially diluted 1:50 into an intermediate 96-well plate containing SF-OptiMEM prior to transfer to the assay plate (25 μL/well). Each of the test compounds were tested in duplicate wells at final concentrations starting from 8 μM or 2 μM using ½ stepwise dilutions for a total of 8 points. Virus infection was performed by preparing a working stock of MPV-GFP1 at a multiplicity of infection (MOI) equal to 0.05/25 μL and aliquoting 25 μL of virus inoculum to the compound and positive control wells. SF-OptiMEM was added (25 μL/well) to the appropriate wells to serve as a virus-free negative control for the assay. The final DMSO concentration of all wells is 0.5%. Plates were incubated at 32° C., 5% CO2 for 5 days.
After 5 days incubation, eGFP fluorescence intensity was measured at (X) […] wavelength using a Spectramax i3× plate reader (VENDOR). Percent viral inhibition was calculated using the following equation: y=[…]
Where XQ is the fluorescence intensity measured in a well containing recombinant MPV-GFP1-infected, compound-treated cells and XP is the average fluorescence intensity measured in the wells containing untreated cells infected with recombinant virus. EC50 values were then calculated by non-linear regression using a four parameter curve logistic equation. The curve fit model employed was XLFit Dose Response One Site Model 200: y=(A+(B/(1+((x/C)^D))))
Where A is the minimum y value, B is the maximum y value, C is the log EC50 value, and D is the slope factor. […] EC50 ranges are as follows: A<0.5 μM; B>0.5 μM.

[3] = human respiratory syncytial virus
[4] = human metapneumovirus, Vero C1008, 120 h

Compound | EC50 [1, 3] [nM] | EC50 [2, 4] [nM] | EC50 [1] [nM] | EC50 ([2]; Method-A, MPV-GFP1 in Vero E6 cells, eGFP fluorescence after 5 days) [nM]
C[C@]1(C(N)=O)COc2c1cc([C@@](O)(CNC(=O)c1cc(C3CC3)c3nn(C(F)F)cc3c1)C(F)(F)F)nc2-c1ccc(F)c(Cl)c1 [Example 48] | < 200 | < 500 | – | –
COc1cc(C(=O)NC[C@](O)(c2cc3c(c(-c4ccc(F)cc4)n2)OC[C@]3(C)C(N)=O)C(F)(F)F)cn2cc(C(F)(F)F)nc12 [Example 49] | < 200 | > 500 | – | –
Cc1cn2cc(C(=O)NC[C@](O)(c3cc4c(c(-c5ccc(F)cc5)n3)OC[C@]4(C)C(N)=O)C(F)(F)F)ccc2n1 [Example 50] | < 200 | > 500 | – | –
C[C@]1(C(N)=O)COc2c1cc([C@@](O)(CNC(=O)c1ccc3nc(C4CC4)cn3c1)C(F)(F)F)nc2-c1ccc(F)cc1 [Example 51] | < 200 | < 500 | – | –
Cc1cn2cc(C(=O)NC[C@](O)(c3cc4c(c(-c5ccc(F)cc5)n3)OC[C@]4(C)C(N)=O)C3CC3)ccc2n1 [Example 52] | < 200 | < 500 | – | –
C[C@]1(C(N)=O)COc2c1cc([C@@](O)(CNC(=O)c1ccc3nc(C4CC4)cn3c1)C1CC1)nc2-c1ccc(F)cc1 [Example 53] | < 200 | < 500 | – | –
C[C@]1(C(N)=O)COc2c1cc([C@@](O)(CNC(=O)c1ccc3nc(C(F)(F)F)cn3c1)C(F)(F)F)nc2-c1ccc(F)cc1 [Example 54] | < 200 | > 500 | – | –
Cc1cn2cc(C(=O)NC[C@](O)(c3cc4c(c(-c5ccc(F)cc5)n3)OC[C@]4(C)C(N)=O)C(F)(F)F)cc(Cl)c2n1 [Example 55] | < 200 | < 500 | – | –
C[C@]1(C(N)=O)COc2c1cc([C@@](O)(CNC(=O)c1cc(F)c3nc(C4CC4)cn3c1)C(F)(F)F)nc2-c1ccc(F)cc1 [Example 57] | < 200 | > 500 | – | –
C[C@]1(C(N)=O)COc2c1cc([C@@](O)(CNC(=O)c1cc(F)c3nc(C4CC4)cn3c1)C(F)(F)F)nc2-c1ccc(F)c(Cl)c1 [Example 58] | < 200 | < 500 | – | –
COc1cc(C(=O)NC[C@](O)(c2cc3c(c(-c4ccc(F)c(Cl)c4)n2)OC[C@]3(C)C(N)=O)C(F)(F)F)cn2cc(C3CC3)nc12 [Example 59] | < 200 | < 500 | – | –
C[C@]1(C(N)=O)COc2c1cc([C@@](O)(CNC(=O)c1ccc3nc(C4CC4)cn3c1)C(F)(F)F)nc2-c1ccc(F)c(Cl)c1 [Example 60] | < 200 | < 500 | – | –
COc1cc(C(=O)NC[C@](O)(c2cc3c(c(-c4ccc(F)cc4)n2)OC[C@]3(C)C(N)=O)C(F)(F)F)cn2cc(CF)nc12 [Example 62] | < 200 | > 500 | – | –
C[C@]1(C(N)=O)COc2c1cc([C@@](O)(CNC(=O)c1cc(F)c3nc(CF)cn3c1)C(F)(F)F)nc2-c1ccc(F)cc1 [Example 63] | < 200 | > 500 | – | –
COc1cc(C(=O)NC[C@](O)(c2cc3c(c(-c4ccc(F)cc4)n2)OC[C@]3(C)C(N)=O)C(F)(F)F)cn2cc(C(F)F)nc12 [Example 64] | < 200 | > 500 | – | –
COc1cc(C(=O)NC[C@](O)(c2cc3c(c(-c4ccc(F)c(Cl)c4)n2)OC[C@]3(C)C(N)=O)C(F)(F)F)cn2cc(C(F)F)nc12 [Example 65] | < 200 | > 500 | – | –
CC1(C(N)=O)COc2c1cc(C(O)(CNC(=O)c1cc(OCC(F)F)n3nc(C4CC4)cc3c1)C(F)(F)F)nc2-c1ccc(F)cc1 (centres unmarked) [Example 68] | – | – | < 200 | < 500
Cc1cnc2c(Cl)cc(C(=O)NC[C@](O)(c3cc4c(c(-c5ccc(F)cc5)n3)OC[C@]4(C)C(N)=O)C(F)(F)F)cc2c1 [Example 70] | < 200 | < 500 | – | –
C[C@]1(C(N)=O)COc2c1cc([C@@](O)(CNC(=O)c1cc(Cl)c3ncc(C4CC4)cc3c1)C(F)(F)F)nc2-c1ccc(F)cc1 [Example 72] | < 200 | < 500 | – | –
